Data taken from publication PMC7251097, “Aspartate/asparagine-β-hydroxylase: a high-throughput mass spectrometric assay for discovery of small molecule inhibitors” (Scientific Reports, 2020).
Where two headings read alike, the source gives them in different places. One block for each molecule: values may come before it.

Biological target: T1, His6-AspH315–758 (human aspartate/asparagine-β-hydroxylase, AspH) (Homo sapiens, UniProt Q12797)
T1 construct: N-Terminally His6-tagged human AspH315–758 (His6-AspH315–758) was produced in E. coli BL21 (DE3) cells; made in house; host or cells: E. coli BL21 (DE3), pET-28a(+) vector
T1 sequence (Q12797 315-758): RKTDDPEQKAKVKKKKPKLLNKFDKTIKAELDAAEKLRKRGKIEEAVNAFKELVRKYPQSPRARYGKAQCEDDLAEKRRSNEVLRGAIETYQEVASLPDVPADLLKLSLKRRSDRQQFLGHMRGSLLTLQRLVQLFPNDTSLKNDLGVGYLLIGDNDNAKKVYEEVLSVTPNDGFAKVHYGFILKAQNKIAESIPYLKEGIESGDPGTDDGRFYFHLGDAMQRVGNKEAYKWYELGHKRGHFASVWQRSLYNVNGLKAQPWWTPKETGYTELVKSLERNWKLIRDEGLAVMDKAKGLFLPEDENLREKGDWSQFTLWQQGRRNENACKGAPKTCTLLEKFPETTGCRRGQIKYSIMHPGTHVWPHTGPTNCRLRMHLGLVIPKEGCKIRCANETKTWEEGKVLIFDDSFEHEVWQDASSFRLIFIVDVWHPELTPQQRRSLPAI
Test: SPE-MS AspH inhibition assay (LOPAC screen at fixed 20 μM and IC50 dose-response), hydroxylation of cyclic peptide hFX-CP101–119
Format: biochemical
Details: for Inhibition at 20 µM [%]: AspH activity, fixed compound concentration 20 μM, initial LOPAC screen, 0.5%v/v DMSO

[1] = LOPAC compound at fixed 20 uM, plate 1, normalised to DMSO and 2,4-PDCA controls
[2] = LOPAC compound at fixed 20 uM, substrate conversion, plate 1
[3] = LOPAC compound at 20uM, plate 2, conversion of substrate peptide
[4] = LOPAC compound at 20uM, plate 2, normalised to DMSO and 2,4-PDCA controls
[5] = LOPAC Plate 4, compound at 20 uM, substrate conversion
[6] = LOPAC Plate 4, compound at 20 uM

Structure (SMILES): CN(C)CCC(c1ccc(Br)cc1)c1ccccn1.O=C(O)/C=C\C(=O)O (racemic) [(±)-Brompheniramine maleate]
Plate 1 (% inhibition) [1]: 8.96%
Plate 1 (% conversion) [2]: 32.86%

Structure (SMILES): Br.C=CCN1CCc2c(cc(O)c(O)c2Cl)C(c2ccccc2)C1 (racemic) [(±)-Chloro-APB hydrobromide, reference compound]
Inhibition at 20 µM [%]: 95.8%
Plate 2 (% conversion) [3]: 3.87%
Plate 2 (% inhibition) [4]: 95.82%

Structure (SMILES): CN(C)CCC(c1ccc(Cl)cc1)c1ccccn1.O=C(O)/C=C\C(=O)O (racemic) [(±)-Chlorpheniramine maleate]
Plate 1 (% inhibition) [1]: -6.31%
Plate 1 (% conversion) [2]: 37.99%

Structure (SMILES): NC1CCN(O)C1=O (racemic) [(±)-HA-966]
Plate 1 (% conversion): 36.52%
Plate 1 (% inhibition): -1.94%

Structure (SMILES): O=C(O)C1CCCNC1 (racemic) [(±)-Nipecotic acid]
Plate 1 (% conversion): 30.40%
Plate 1 (% inhibition): 16.29%

Structure (SMILES): NC[C@H](O)c1ccc(O)c(O)c1.O=C(O)C(O)C(O)C(=O)O (racemic) [(±)-Norepinephrine (+)bitartrate]
Plate 1 (% inhibition) [1]: 92.57%
Plate 1 (% conversion) [2]: 4.78%

Structure (SMILES): CN1CCN(C2Cc3ccccc3Sc3ccc(Cl)cc32)CC1.O=C(O)/C=C\C(=O)O (racemic) [(±)-Octoclothepin maleate]
Plate 3 (% conversion): 45.22%

Structure (SMILES): CC(C)NCC(O)COc1cccc2ccccc12.Cl (racemic) [(±)-Propranolol hydrochloride]
Plate 3 (% conversion): 40.68%

Structure (SMILES): Br.C=CCN1CCc2cc(O)c(O)cc2C(c2ccccc2)C1 (racemic) [(±)-SKF 38393, N-allyl-, hydrobromide]
% conversion: 11.46%
% inhibition (20 µM): 73.28%

Structure (SMILES): Cl.Oc1cc2c(cc1O)C(c1ccccc1)CNCC2 (racemic) [(±)-SKF-38393 hydrochloride]
Plate 2 (% conversion): 10.11%
Plate 2 (% inhibition) (20 µM): 77.21%

Structure (SMILES): CNCC(O)c1ccc(O)cc1 (racemic) [(±)-Synephrine]
% conversion: 25.88%

Structure (SMILES): O=C1c2c(O)cc(O)cc2O[C@H](c2ccc(O)c(O)c2)[C@H]1O (racemic) [(±)-Taxifolin, reference compound]
Inhibition at 20 µM [%]: 97.5%
% conversion [5]: 3.21%

Next, values leading:

Plate 1 (% inhibition) [1]: -22.02%
Plate 1 (% conversion) [2]: 43.27%
Structure (SMILES): COC(=O)C1=C(C)NC(C)=C([N+](=O)[O-])C1c1ccccc1C(F)(F)F (racemic) [(±)-Bay K 8644]

Plate 2 (% conversion) [3]: 36.58%
Plate 2 (% inhibition) [4]: -1.88%
Structure (SMILES): CC(C)(C)NCC(O)COc1cccc2[nH]c(=O)[nH]c12.Cl (racemic) [(±)-CGP-12177A hydrochloride]

Plate 2 (% conversion) [3]: 6.18%
Plate 2 (% inhibition) [4]: 88.94%
Structure (SMILES): CNCC(O)c1ccc(O)c(O)c1.Cl (racemic) [(±)-Epinephrine hydrochloride]

Plate 3 (% conversion) (LOPAC compound at 20uM, plate 3, conversion of substrate peptide): 16.57%
Structure (SMILES): COCCc1ccc(OCC(O)CNC(C)C)cc1.O=C(O)C(O)C(O)C(=O)O (racemic) [(±)-Metoprolol (+)-tartrate]

% conversion [5]: 27.49%
Structure (SMILES): CCCN(CCc1ccccc1)C1CCc2c(O)cccc2C1.Cl (racemic) [(±)-PPHT hydrochloride]

% inhibition [6]: -12.79%
% conversion [5]: 40.83%
Structure (SMILES): CC(C)NCC(O)c1ccc(NS(C)(=O)=O)cc1.Cl (racemic) [(±)-Sotalol hydrochloride]

% inhibition [6]: -0.19%
% conversion [5]: 36.54%
Structure (SMILES): CCN1CCCC1CNC(=O)c1cc(S(N)(=O)=O)ccc1OC (racemic) [(±)-Sulpiride]

% inhibition [6]: -5.00%
% conversion [5]: 38.18%
Structure (SMILES): O=C1CCC(N2C(=O)c3ccccc3C2=O)C(=O)N1 (racemic) [(±)-Thalidomide]
